Test results from ChEMBL document CHEMBL5113370, “Primed for global coronavirus pandemic: Emerging research and clinical outcome” (Eur J Med Chem, 2021).

Experiments:
SARS-CoV-2 [1] = assay: Antiviral activity against SARS-CoV 2 nCoV-2019BetaCoV/Wuhan/WIV04/2019 infected in african green monkey Vero E6 cells measured after 48 hrs; assay type: functional, organism-based; settings: Severe acute respiratory syndrome coronavirus 2, nCoV-2019BetaCoV/Wuhan/WIV04/2019, Vero C1008, 48 h
[2] = Cytotoxicity against African green monkey Vero cells by CCK8 assay method; assay type: toxicity, cell-based; settings: chlorocebus sabaeus
[3] = Selectivity index, ratio of IC50 for African green monkey Vero cells to IC50 for antiviral activity against SARS-CoV 2 nCoV-2019BetaCoV/Wuhan/WIV04/2019; assay type: toxicity; settings: read-out: Ratio IC50
SARS-CoV-2 [4] = assay: Antiviral activity against SARS-CoV 2 infected in african green monkey Vero E6 cells by immunofluorescence assay; assay type: functional, organism-based; settings: Severe acute respiratory syndrome coronavirus 2, Vero C1008

SMILES	EC50 (SARS-CoV-2 [1]) [µM]	CC50 [2] [µM]	selectivity ratio [3]	IC50 (SARS-CoV-2 [4]) [µM]
NC(=O)c1ncn([C@@H]2O[C@H](CO)[C@@H](O)[C@H]2O)n1 [RIBAVIRIN]	110	> 400	> 3.65	–
CCN(CC)CCOc1ccc2c(c1)C(=O)c1cc(OCCN(CC)CC)ccc1-2 [TILORONE]	–	–	–	4.09
